Assay results published in publication PMC10839966, “Identification and evaluation of small-molecule inhibitors against the dNTPase SAMHD1 via a comprehensive screening funnel” (iScience, 2024).
Entries after “also recorded” stand apart in the source; their conditions may differ. Like-named read-outs stand apart in the source and are kept apart here.

How the values were obtained:
[1] = test system: T1, wild-type SAMHD1 in THP-1 cell lysates; experiment: CETSA using THP-1 cell lysates, wild-type SAMHD1; type: binding, Human
T1 construct: lysate from THP-1 cells expressing endogenous wild-type SAMHD1; endogenous in cells; host or cells: THP-1
Experimental: (§1) Samples were subsequently rested at RT for 3 min, supplemented with 40 μL sample buffer (50 mM HEPES pH 7.5, 5 mM β-glycerophosphate, 0.1 mM Na3VO4, 10 mM MgCl2, 2 mM TCEP, 1X cOmplete, Mini, EDTA-free protease inhibitor cocktail), and then lysed through three freeze-thaw cycles with alternating ethanol/dry ice and 37°C water bath. Finally, lysates were clarified by centrifugation at 17,000g for 20 min and then analysed by Western blot. […] Following heating, samples were rested at RT for 3 min, clarified by centrifugation, and finally analysed by Western blot. Protein band intensities were normalised to that of the thermally stable loading control SOD-1, and were curve-fitted via a Boltzmann sigmoidal model (GraphPad Prism) to determine Tagg.

[2] = test system: T2, cellular SAMHD1 in THP-1 cell lysate; experiment: Drug affinity responsive target stability (DARTS) on THP-1 cell lysates; type: binding, Human; details: 100 μM compound or 5 mM dGTP
T2 construct: lysate from THP-1 cells expressing endogenous wild-type SAMHD1; endogenous in cells; host or cells: THP-1
Experimental: Lysates were then clarified by centrifugation at 16000 x g for 10 min at 4°C. Protein concentrations of the clarified lysates were subsequently determined by Pierce™ Coomassie plus (Bradford) assay reagent (Thermo Scientific), and samples were diluted in 1x TN buffer (50 mM Tris-HCl pH 8.0, 50 mM NaCl) to a total protein concentration of 1 mg/mL. […] Digestion was stopped by the addition of 4x Laemmli sample buffer (Bio-Rad) supplemented with 100 mM DTT and heating at 95°C for 5 min.

[3] = test system: recombinant MTH1, dCTPase, dUTPase, ITPase, NUDT5, NUDT12, NUDT15 and NUDT22; experiment: Compound selectivity, enzyme-coupled MG assays against panel of nucleoside pyro-/tri-phosphatases; type: biochemical, human; details: assayed up to 100 μM
recombinant SAMHD1 [4] = molecular target: T3, recombinant SAMHD1 (Homo sapiens, UniProt Q9Y3Z3); experiment: Kinetic study, enzyme-coupled MG assay with matrix of inhibitors and dGTP; type: biochemical; details: inhibitor 0.03-20 μM added before dGTP 6.25-200 μM
T3 construct: His-tag (N); made in house; host or cells: E. coli BL21 (DE3)
Experimental: The reactions are performed on 384-well plates with a final volume of 20 μl and DMSO level controlled at 1%, where all reagents are dispensed using a D300e Digital Dispenser (Tecan). […] Following 20 min incubation at RT, the reaction was then quenched by EDTA, Subsequently, the malachite green reagent was added at 10 μl/well, and upon incubation at RT for 20 min, [MUT] was read in a Hidex Sense microplate reader. Standard curves of inorganic sodium phosphate were constructed to determine amount of phosphate released, and subsequently used to determine reaction kinetics (GraphPad Prism).

recombinant SAMHD1 [5] = molecular target: T3, recombinant SAMHD1; experiment: Enzyme-coupled malachite green assay, SAMHD1 in vitro activity (dGTP, ara-CTP, Cl-F-ara-ATP substrates); type: biochemical
recombinant SAMHD1 [6] = molecular target: T3, recombinant SAMHD1; experiment: B4NPP direct SAMHD1 enzymatic assay; type: biochemical; details: for Inhibition of SAMHD1 activity against B4NPP (in words): 2 mM B4NPP
recombinant SAMHD1 [7] = molecular target: T3, recombinant SAMHD1; experiment: Differential scanning fluorometry (DSF); type: binding; details: for Effect on SAMHD1 thermal stability / Tm1: absence of nucleotides, up to 200 μM (0.2–[…]); for Effect on GTP-induced SAMHD1 dimerization (Tm1 transition): order-of-addition, 0.1 mM TH6342, 0.5 mM TH7127 pre-incubated before low GTP, TH7126 before or after GTP
Experimental: The assay mixture was then subject to a 20-85/90°C temperature gradient for 20 min, with the fluorescence intensities (RFU) measured every second using a LightCycler 480 Instrument II (Roche Life Science). […] Melting temperatures (Tm) were identified by the minima of the negative first derivative (-dRFU/dT) of fluorescence intensity (LightCycler 480 Software).

recombinant SAMHD1 [8] = molecular target: T3, recombinant SAMHD1; experiment: In vitro chemical crosslinking (glutaraldehyde), SAMHD1 multimers; details: 1.875 mM glutaraldehyde, GTP 0-5 mM
recombinant SAMHD1 [9] = molecular target: T3, recombinant SAMHD1; experiment: Dynamic light scattering (DLS), SAMHD1 particle size; details: 1 mM compound, 1 mM GTP
Experimental: SAMHD1 particle size distribution was determined using a Malvern ZETASIZER (Ultra) (Malvern Instruments). […] Raw intensity-weighted data were converted to volume distribution by built-in algorithms to mitigate the impact of aggregated protein species.

SAMHD1^Y146S/Y154S = test system: T4, SAMHD1^Y146S/Y154S; experiment: CETSA using lysates of SAMHD1−/− THP-1 cells with rescue expression of dimerization-defective variant; type: binding, Human; details: versus DMSO, full melt curves, 100 μM
T4 construct: expressed in transfected cells; host or cells: SAMHD1-/- THP-1 cell clone

[10] = test system: T5, cellular SAMHD1 in intact THP-1 cells; experiment: CETSA using intact THP-1 cells; type: cell-based, Human; details: 100 μM inhibitors or 10 mM thymidine, 2 h; isothermal at 53°C for inhibitors
T5 construct: lysate from THP-1 cells expressing endogenous wild-type SAMHD1; endogenous in cells; host or cells: THP-1
Experimental: as §1

[11] = substrate Cl-F-ara-ATP 50 μM with GTP 12.5 μM as activator, read-out: IC50 (μM) Cl-F-ara-ATP
[12] = substrate ara-CTP 200 μM with dGTPαS 3.125 μM as activator, read-out: IC50 (μM) araCTP
[13] = substrate dGTP 25 μM, read-out: IC50 (μM) dGTP

T3 sequence (Q9Y3Z3 whole entry): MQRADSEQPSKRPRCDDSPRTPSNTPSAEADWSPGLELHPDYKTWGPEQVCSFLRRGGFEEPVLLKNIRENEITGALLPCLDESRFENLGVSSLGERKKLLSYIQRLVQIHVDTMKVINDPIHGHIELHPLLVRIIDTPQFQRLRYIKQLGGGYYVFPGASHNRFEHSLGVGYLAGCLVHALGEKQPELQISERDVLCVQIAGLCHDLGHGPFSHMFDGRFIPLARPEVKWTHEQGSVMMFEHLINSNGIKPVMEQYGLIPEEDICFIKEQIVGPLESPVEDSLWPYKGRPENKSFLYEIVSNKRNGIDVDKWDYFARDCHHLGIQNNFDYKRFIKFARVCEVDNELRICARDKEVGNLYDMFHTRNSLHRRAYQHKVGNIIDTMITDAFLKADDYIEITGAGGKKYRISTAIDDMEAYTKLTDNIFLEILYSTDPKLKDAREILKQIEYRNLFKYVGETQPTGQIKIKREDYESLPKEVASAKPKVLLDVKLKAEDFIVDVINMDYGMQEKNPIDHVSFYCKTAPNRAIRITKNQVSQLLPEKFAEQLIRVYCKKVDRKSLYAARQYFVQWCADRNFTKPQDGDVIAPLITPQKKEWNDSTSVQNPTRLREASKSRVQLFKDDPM

Nc1nc2c(ncn2[C@H]2C[C@H](O)[C@@H](COP(=O)(O)OP(=O)(O)OP(=O)(O)O)O2)c(=O)[nH]1 [dGTP, reference compound]
SAMHD1 stabilization against heat, cell lysate ([1]; 100 μM inhibitors or 5 mM dGTP, isothermal at 45°C for inhibitors): substantially stabilized SAMHD1 | SAMHD1 stability to pronase treatment [2]: substantially stabilized SAMHD1

c1ccc(CCNc2nc(-c3cccs3)cn3ccnc23)nc1 [TH7528, N-(2-(pyridin-2-yl)ethyl)-6-(thiophen-2-yl)imidazo[1,2-a]pyrazin-8-amine]
Selectivity for SAMHD1 versus panel of nucleotide phosphatases [3]: selectively inhibited SAMHD1 | Effect on reaction kinetics / Hill coefficient (Hn) (recombinant SAMHD1 [4]): significantly increased hill coefficients | IC50 (recombinant SAMHD1 [5]; [11]): 2.6 µM | IC50 (recombinant SAMHD1 [5]; [12]): 2.8 µM | IC50 (recombinant SAMHD1 [5]; [13]): 4.5 µM | Inhibition of SAMHD1 activity against B4NPP (in words) (recombinant SAMHD1 [6]; Mn2+): retained their inhibitory activities | Effect on SAMHD1 thermal stability / Tm1 (recombinant SAMHD1 [7]): small concentration-dependent reduction in Tm1

Nc1ccccc1-c1cn2ccnc2c(NCCc2ccccn2)n1 [TH7126, 6-(2-aminophenyl)-N-(2-(pyridin-2-yl)ethyl)imidazo[1,2-a]pyrazin-8-amine]
Effect on reaction kinetics / Hill coefficient (Hn) (recombinant SAMHD1 [4]): did not alter the reaction kinetics | Inhibition of SAMHD1 (in words) (recombinant SAMHD1 [5]; dGTP, ara-CTP and Cl-F-ara-ATP substrates): Neg. control; also recorded: minimal inhibition | IC50 (recombinant SAMHD1 [5]; [11]): > 100 µM | IC50 (recombinant SAMHD1 [5]; [12]): > 100 µM | IC50 (recombinant SAMHD1 [5]; [13]): > 100 µM | Inhibition of SAMHD1 activity against B4NPP (in words) (recombinant SAMHD1 [6]; Mn2+): minimal inhibition | Effect on SAMHD1 thermal stability / Tm1 (recombinant SAMHD1 [7]): did not alter SAMHD1 thermal stability | Effect on GTP-induced SAMHD1 dimerization (Tm1 transition) (recombinant SAMHD1 [7]): did not disrupt SAMHD1 dimerization

Nc1nc2c(ncn2[C@H]2C[C@H](O)[C@@H](COP(O)(=S)OP(=O)(O)OP(=O)(O)O)O2)c(=O)[nH]1 (stereo partly drawn) [dGTPαS, reference compound]
Tm3 (recombinant SAMHD1 [7]; SAMHD1 melting temperature with dGTPαS up to 1 mM): ~70 °C

Clc1ccccc1-c1cn2ccnc2c(NCCc2ccccn2)n1 [TH6342, 6-(2-chlorophenyl)-N-(2-(pyridin-2-yl)ethyl)imidazo[1,2-a]pyrazin-8-amine]
Aggregation temperature (Tagg) ± SE (°C) ([1]; Figure 7F, SAMHD1 Tagg summary, wild-type SAMHD1 lysate, 100 μM compound, DMSO 44.8 ± 0.6): 46.1 ± 0.4 °C | Selectivity for SAMHD1 versus panel of nucleotide phosphatases [3]: selectively inhibited SAMHD1 | Effect on GTP-induced SAMHD1 multimerization (crosslinking) (recombinant SAMHD1 [8]): deterred GTP-induced SAMHD1 multimerization | Effect on reaction kinetics / Hill coefficient (Hn) (recombinant SAMHD1 [4]): significantly increased hill coefficients | IC50 (recombinant SAMHD1 [5]; [11]): 5.8 µM | IC50 (recombinant SAMHD1 [5]; [12]): 11 µM | IC50 (recombinant SAMHD1 [5]; [13]): 9.1 µM | Effect on GTP-induced SAMHD1 dimerization (DLS) (recombinant SAMHD1 [9]): deterred GTP (1 mM)-induced SAMHD1 dimerization | Inhibition of SAMHD1 activity against B4NPP (in words) (recombinant SAMHD1 [6]; Mn2+): retained their inhibitory activities | Increase of aggregation temperature (Tagg) (SAMHD1^Y146S/Y154S): ~1 °C | SAMHD1 stability to pronase treatment [2]: Neither TH6342 nor TH7127 in cell lysates altered SAMHD1 stability to pronase treatment | Effect on thermal stability of nucleotide-bound SAMHD1 (recombinant SAMHD1 [7]; 0.5 mM compound added after GTP at 5 mM or dGTPαS at 1 mM): mildly destabilized GTP-bound, but not dGTPαS-bound, SAMHD1 species | Effect on SAMHD1 thermal stability / Tm1 (recombinant SAMHD1 [7]): small concentration-dependent reduction in Tm1 | Effect on GTP-induced SAMHD1 dimerization (Tm1 transition) (recombinant SAMHD1 [7]): the allosteric activator was not able to fully remove the Tm1 transition

Cc1cn([C@H]2C[C@H](O)[C@@H](CO)O2)c(=O)[nH]c1=O [thymidine, Thymidine]
SAMHD1 stabilization against heat, intact cells [10]: substantially stabilized SAMHD1

COc1ccccc1-c1cn2ccnc2c(NCCc2ccccn2)n1 [TH7127, 6-(2-methoxyphenyl)-N-(2-(pyridin-2-yl)ethyl)imidazo[1,2-a]pyrazin-8-amine]
Selectivity for SAMHD1 versus panel of nucleotide phosphatases [3]: selectively inhibited SAMHD1 | Effect on reaction kinetics / Hill coefficient (Hn) (recombinant SAMHD1 [4]): significantly increased hill coefficients | IC50 (recombinant SAMHD1 [5]; [11]): 4 µM | IC50 (recombinant SAMHD1 [5]; [12]): 4.5 µM | IC50 (recombinant SAMHD1 [5]; [13]): 4.9 µM | Inhibition of SAMHD1 activity against B4NPP (in words) (recombinant SAMHD1 [6]; Mn2+): retained their inhibitory activities | Ki (recombinant SAMHD1 [6]; B4NPP substrate, Mn2+, global fit, mixed inhibition model): 20.1 µM | Mode of inhibition (recombinant SAMHD1 [6]; B4NPP substrate, global fitting): mixed mode of inhibition | alpha (α) (recombinant SAMHD1 [6]; B4NPP substrate, global fit, mixed inhibition model): 0.36 | SAMHD1 stability to pronase treatment [2]: Neither TH6342 nor TH7127 in cell lysates altered SAMHD1 stability to pronase treatment | Effect on SAMHD1 thermal stability / Tm1 (recombinant SAMHD1 [7]): small concentration-dependent reduction in Tm1 | Effect on GTP-induced SAMHD1 dimerization (Tm1 transition) (recombinant SAMHD1 [7]): the allosteric activator was not able to fully remove the Tm1 transition
